The NIST ThermoML archive (doi:10.1021/acs.jced.5b00662)
“And” between values parts separate entries of the source, which are not always exact repeats. Equal entries are not always repeated.

Tests used:
[1] = 101.33 kPa, Liquid; for speed of sound: Sing-around technique in a fixed-path interferometer; for mass density: Vibrating tube method; for viscosity: Concentric cylinders viscometry
[2] = refractive index (Na D-line) (dimensionless); conditions: 101.33 kPa, Liquid, Standard Abbe refractometry
[3] = xn = mol fraction of the nth substance listed; conditions: 100 kPa, Liquid; for speed of sound: Sing-around technique in a fixed-path interferometer; for mass density: Vibrating tube method

COCCOCCOC [2,5,8-trioxanonane]
Conditions | mass density, [1] | refractive index, [2] | speed of sound, [1] [m/s] | viscosity, [1] [mPa·s]
283.15 K | 953.7 kg/m3 | 1.41249 | 1340.7 | –
288.15 K | 950.2 kg/m3 and 948.7 kg/m3 | 1.4102 | 1320 | 1.161
293.15 K | 945.2 kg/m3 and 943.8 kg/m3 | 1.40802 | 1299.9 | 1.081
298.15 K | 938.8 kg/m3 and 940.2 kg/m3 | 1.40579 | 1280 | 1.011
303.15 K | 933.8 kg/m3 and 935.2 kg/m3 | 1.40359 | 1260.1 | 0.942
308.15 K | 928.8 kg/m3 and 930.2 kg/m3 | – | 1240.3 | 0.879
313.15 K | 923.8 kg/m3 and 925.2 kg/m3 | 1.39921 | 1220.6 | 0.825
318.15 K | 920.2 kg/m3 | – | – | 0.767
323.15 K | 913.7 kg/m3 and 915.2 kg/m3 | 1.3949 | 1181.7 | 0.718
328.15 K | 910.1 kg/m3 | – | – | 0.674
333.15 K | 903.6 kg/m3 and 905 kg/m3 | 1.3905 | 1143.4 | 0.633
338.15 K | 899.9 kg/m3 | – | – | 0.599
343.15 K | 894.8 kg/m3 and 893.4 kg/m3 | 1.38623 | 1105.8 | 0.566
348.15 K | 889.7 kg/m3 | – | – | 0.537
353.15 K | 884.6 kg/m3 | 1.38178 | – | 0.505
358.15 K | 879.4 kg/m3 | – | – | 0.486
363.15 K | 874.2 kg/m3 | – | – | 0.464
368.15 K | 869 kg/m3 | – | – | 0.444
373.15 K | 863.8 kg/m3 | – | – | 0.441

COCCOCCO [2-(2-methoxyethoxy)ethanol]
Conditions | mass density, [1] | refractive index, [2] | speed of sound, [1] [m/s] | viscosity, [1] [mPa·s]
283.15 K | 1028.6 kg/m3 | 1.42914 | 1467.7 | –
288.15 K | 1025.3 kg/m3 and 1024.2 kg/m3 | 1.42723 | 1450.2 | 4.514
293.15 K | 1021 kg/m3 and 1019.8 kg/m3 | 1.42498 | 1432.7 | 3.963
298.15 K | 1015.4 kg/m3 and 1016.3 kg/m3 | 1.4239 | 1415.4 | 3.403
303.15 K | 1011 kg/m3 and 1011.9 kg/m3 | 1.42174 | 1398.1 | 3
308.15 K | 1006.6 kg/m3 and 1007.4 kg/m3 | – | 1380.9 | 2.666
313.15 K | 1002.1 kg/m3 and 1003 kg/m3 | 1.41733 | 1363.9 | 2.373
318.15 K | 998.8 kg/m3 | – | – | 2.148
323.15 K | 993.2 kg/m3 and 994.3 kg/m3 | 1.41368 | 1329.7 | 1.946
328.15 K | 989.8 kg/m3 | – | – | 1.772
333.15 K | 984.1 kg/m3 and 985.3 kg/m3 | 1.4101 | 1296.1 | 1.606
338.15 K | 981 kg/m3 | – | – | 1.489
343.15 K | 976.5 kg/m3 and 975 kg/m3 | 1.40635 | 1262.7 | 1.372
348.15 K | 971.8 kg/m3 | – | – | 1.268
353.15 K | 967.2 kg/m3 | 1.40241 | – | 1.155
358.15 K | 962.5 kg/m3 | – | – | 1.094
363.15 K | 957.9 kg/m3 | – | – | 1.019
368.15 K | 953.1 kg/m3 | – | – | 0.95
373.15 K | 948.5 kg/m3 | – | – | 0.877

OCCO [1,2-ethanediol]
Conditions | mass density, [1] | refractive index, [2] | speed of sound, [1] [m/s] | viscosity, [1] [mPa·s]
283.15 K | 1120.2 kg/m3 | 1.43461 | 1689.9 | –
288.15 K | 1118.2 kg/m3 | 1.43312 | 1678.3 | 26.8
293.15 K | 1114.6 kg/m3 and 1113.3 kg/m3 | 1.43167 | 1666.5 | 21.2
298.15 K | 1111.1 kg/m3 | 1.43 | 1654.7 | 17.13
303.15 K | 1106.3 kg/m3 and 1107.6 kg/m3 | 1.42855 | 1642.9 | 14
308.15 K | 1104.1 kg/m3 | – | 1631.1 | 11.58
313.15 K | 1099.2 kg/m3 and 1100.5 kg/m3 | 1.42562 | 1619.3 | 9.627
318.15 K | 1097 kg/m3 | – | – | 8.182
323.15 K | 1092.1 kg/m3 and 1093.4 kg/m3 | 1.4226 | 1595.5 | 6.98
328.15 K | 1089.8 kg/m3 | – | – | 6.007
333.15 K | 1084.8 kg/m3 and 1086.2 kg/m3 | 1.41955 | 1571.5 | 5.197
338.15 K | 1082.6 kg/m3 | – | – | 4.555
343.15 K | 1078.9 kg/m3 and 1077.5 kg/m3 | 1.41655 | 1547.4 | 4.01
348.15 K | 1075.2 kg/m3 | – | – | 3.552
353.15 K | 1071.5 kg/m3 | 1.41351 | – | 3.161
358.15 K | 1067.8 kg/m3 | – | – | 2.835
363.15 K | 1064 kg/m3 | – | – | 2.552
368.15 K | 1060.2 kg/m3 | – | – | 2.306
373.15 K | 1056.4 kg/m3 | – | – | 2.102

OCCO [1,2-ethanediol] + O
[3]
Conditions | mass density, x1 = 0.9886 [kg/m3] | mass density, x1 = 0.9943 [kg/m3] | mass density, x1 = 0.9959 [kg/m3] | speed of sound, x1 = 0.9886 [m/s] | speed of sound, x1 = 0.9943 [m/s] | speed of sound, x1 = 0.9959 [m/s]
283.15 K | 1119.9 | 1120.07 | 1120.11 | 1690.2 | 1689 | 1690.6
288.15 K | 1116.43 | – | – | 1678.4 | 1678.1 | 1678.6
293.15 K | 1112.94 | 1113.11 | 1113.15 | 1666.6 | 1666.3 | 1666.6
298.15 K | 1109.46 | – | – | 1654.7 | 1654.8 | 1654.6
303.15 K | 1105.95 | 1106.11 | 1106.15 | 1643 | 1643 | 1642.7
308.15 K | 1102.43 | – | – | 1631.2 | 1631.3 | 1630.9
313.15 K | 1098.89 | 1099.05 | 1099.1 | 1619.5 | 1619.4 | 1619.1
323.15 K | 1091.75 | 1091.9 | 1091.95 | 1595.7 | 1595.5 | 1595.2
333.15 K | 1084.51 | 1084.67 | 1084.72 | 1571.7 | 1571.5 | 1571.2
343.15 K | 1077.16 | 1077.33 | 1077.37 | 1547.6 | 1547.4 | 1547.1
